Results as given in the NIST ThermoML archive (doi:10.1007/s10765-012-1233-x).

Conditions: Liquid; for viscosity: Falling or rolling sphere viscometry; for mass density: Vibrating tube method; for thermal conductivity: Hot wire method

CCCCCCn1cc[n+](C)c1.F[B-](F)(F)F [1-hexyl-3-methylimidazolium tetrafluoroborate]
Conditions | mass density [kg/m3] | thermal conductivity [W/m/K] | viscosity [mPa·s]
293.15 K, 100 kPa | 1148.6 | – | 286
293.15 K, 5000 kPa | 1151.2 | – | 302
293.15 K, 10000 kPa | 1153.5 | – | 318
293.15 K, 15000 kPa | 1155.8 | – | 345
293.15 K, 20000 kPa | 1158.2 | – | 372
294.2 K, 100 kPa | – | 0.166 | –
294.2 K, 10000 kPa | – | 0.168 | –
294.2 K, 20000 kPa | – | 0.17 | –
313.15 K, 100 kPa | 1134.1 | – | 92.9
313.15 K, 5000 kPa | 1136.7 | – | 98.7
313.15 K, 10000 kPa | 1139.4 | – | 104
313.15 K, 15000 kPa | 1141.8 | – | 109
313.15 K, 20000 kPa | 1144.2 | – | 115
314.3 K, 100 kPa | – | 0.165 | –
314.3 K, 10000 kPa | – | 0.168 | –
314.3 K, 20000 kPa | – | 0.169 | –
333.15 K, 100 kPa | 1120.5 | – | 40.4
333.15 K, 5000 kPa | 1123.1 | – | 42.5
333.15 K, 10000 kPa | 1125.8 | – | 44.4
333.15 K, 15000 kPa | 1128.5 | – | 45.5
333.15 K, 20000 kPa | 1131.1 | – | 48.2
334.4 K, 100 kPa | – | 0.164 | –
334.4 K, 10000 kPa | – | 0.167 | –
334.4 K, 20000 kPa | – | 0.169 | –
353.15 K, 100 kPa | 1107.1 | – | 21.2
353.15 K, 5000 kPa | 1109.9 | – | 22.3
353.15 K, 10000 kPa | 1112.7 | – | 22.7
353.15 K, 15000 kPa | 1115.5 | – | 23.9
353.15 K, 20000 kPa | 1118.3 | – | 24.3

CCCCCCCC[n+]1ccn(C)c1.F[B-](F)(F)F [1-methyl-3-octylimidazolium tetrafluoroborate]
Conditions | mass density [kg/m3] | thermal conductivity [W/m/K] | viscosity [mPa·s]
293.15 K, 100 kPa | 1107.1 | – | 472
293.15 K, 5000 kPa | 1109.7 | – | 510
293.15 K, 10000 kPa | 1112.2 | – | 537
293.15 K, 15000 kPa | 1114.6 | – | 572
293.15 K, 20000 kPa | 1117 | – | 649
294.2 K, 100 kPa | – | 0.164 | –
294.2 K, 10000 kPa | – | 0.165 | –
294.2 K, 20000 kPa | – | 0.167 | –
313.15 K, 100 kPa | 1093.5 | – | 146
313.15 K, 5000 kPa | 1096.1 | – | 157
313.15 K, 10000 kPa | 1098.8 | – | 166
313.15 K, 15000 kPa | 1101.4 | – | 175
313.15 K, 20000 kPa | 1103.9 | – | 188
314.3 K, 100 kPa | – | 0.163 | –
314.3 K, 10000 kPa | – | 0.164 | –
314.3 K, 20000 kPa | – | 0.166 | –
333.15 K, 100 kPa | 1079.8 | – | 58
333.15 K, 5000 kPa | 1082.6 | – | 60.6
333.15 K, 10000 kPa | 1085.4 | – | 63.6
333.15 K, 15000 kPa | 1088.1 | – | 66.4
333.15 K, 20000 kPa | 1090.8 | – | 69.8
334.4 K, 100 kPa | – | 0.16 | –
334.4 K, 10000 kPa | – | 0.162 | –
334.4 K, 20000 kPa | – | 0.164 | –
353.15 K, 100 kPa | 1066.8 | – | 28.1
353.15 K, 5000 kPa | 1069.7 | – | 29.8
353.15 K, 10000 kPa | 1072.7 | – | 30.8
353.15 K, 15000 kPa | 1075.5 | – | 32.1
353.15 K, 20000 kPa | 1078.3 | – | 33.4
